Results as given in US9958434B2, “Fluorescent probe sensing tyrosine kinase and use thereof” (POSTECH ACADEMY-INDUSTRY FOUNDATION, priority 2013, dated 2018).

Legend:
[1] = Absorbance and fluorescence in HEPES buffer; type: physicochemical; details: 10 mM HEPES buffer, pH 7.5
Method: The present inventors measured absorbance and a change in fluorescence of compound 1 under various solvent conditions.
The present inventors measured the absorbance and fluorescence of compound 1 in a buffer (pH 7.5, 10 mM HEPES). A UV/Vis spectrophotometer commercially available from HP was used to analyze the UV/Vis absorption spectra, and a photon technical international fluorescence system commercially available from PTI was used to analyze the fluorescence spectra. In this case, a cell used when compound 1 was put into each type of equipment was a standard quartz cell having a thickness of 1 cm.
In addition to compound 1, compound 5 was shown as a reference material in FIG. 1. In this case, compound 5 is a reference material obtained by introducing an alkyl group into a —OH group of compound 1 to remove an intramolecular hydrogen bond.
The panels (a) and (b) of the graph show the absorbances and fluorescence intensities of compound 5 and compound 1 under a solvent condition (for example, a 10 mM HEPES buffer, pH 7.5).

96 kinase enzymes = test: KINOMEscan competition binding (DiscoveRX)
Source text: (§1) More particularly, to determine selectivities to various kinds of kinase enzymes, the samples were entrusted to DiscoveRX (U.S.A), which was able to determine the binding affinities to a total of 96 kinase enzymes, to perform KINOMEscan experiments. This company treated all kinds of information on the entrusted samples as confidential, and analyzed the sample with charge. Compound 1 was provided to the company, and the company performed the KINOMEscan experiments, and provided the results (DiscoveRX corp.)
(§2) KINOMEscan is an experiment in which compound 1 and a compound (a material strongly binding to kinase enzymes) competing for compound 1 are treated with a kinase enzyme at the same time to determine how many the competing compound binds to active sites of the kinase enzymes, compared with compound 1. In this experiment, an experimental value is expressed as a percentile value. In this case, a lower percentile value means that compound 1 more strongly bind to the kinase enzymes.

ABL1 (T315I) = molecular target: T1, ABL1 (T315I) (Homo sapiens, UniProt P00519, T315I); test: KINOMEscan competition binding (DiscoveRX); details: lower value means stronger binding
T1 construct: purchased DiscoveRX (contract KINOMEscan service)
Source text: as §1, §2

BRAF = molecular target: T2, BRAF (Homo sapiens, UniProt P15056); test: KINOMEscan competition binding (DiscoveRX); details: lower value means stronger binding
T2 construct: purchased DiscoveRX (contract KINOMEscan service)
Source text: as §1, §2

PDGFRa = molecular target: T3, PDGFRa (Homo sapiens, UniProt P16234); test: KINOMEscan competition binding (DiscoveRX); details: lower value means stronger binding
T3 construct: purchased Carna Biosciences
Source text: as §1, §2

RSK2 = molecular target: T4, RSK2 (Homo sapiens, UniProt P51812); test: KINOMEscan competition binding (DiscoveRX); details: lower value means stronger binding
T4 construct: purchased DiscoveRX (contract KINOMEscan service)
Source text: as §1, §2

TYK2 = molecular target: T5, TYK2 (Homo sapiens, UniProt P29597); test: KINOMEscan competition binding (DiscoveRX); details: lower value means stronger binding
T5 construct: purchased DiscoveRX (contract KINOMEscan service)
Source text: as §1, §2

[2] = tested on: mouse melanoma skin cancer B16F10 tissues; test: In vivo two-photon microscopy and OCT imaging of mouse ear transplanted with skin cancer tissues
Method: More particularly, a mouse's ear was transplanted with skin cancer tissues (mouse melanoma skin cancer B16F10), and treated with compound 1 to determine that fluorescence was selectively observed in a site of cancer in living mice under a two-photon microscope. 6-month-old, SPF/VAF immunodeficent female nude mice (BALB/c-nude mice, OrientBio corp.) were used as the mice, and the B16F10 cancer cells were prepared in the same manner as in Example 12. Then, the concentrated cancer cells from which a solution was removed using a centrifuge were injected into one ear of each mouse using a syringe. After 4 day, formation of cancer tissues in the mouse's ear was checked, and 10 μL of compound 1 (10 mM) was injected into the one ear of each mouse. […] After 30 minutes, the mice were anesthetized by […], and images were taken of cancer tissues and normal tissues using a two-photon fluorescence microscope. […]
In FIG. 13, each image has a size of 300 μm×300 μm, and a scale bar represents 50 μm. A right bar represents a fluorescence signal intensity. […] The panels a and d show the two-photon fluorescence imaging results from the mice into which nothing is injected, the panels b and e show the two-photon fluorescence imaging results from the mice into which 10 μL of a PBS buffer including no compound 1 is injected, and the panels c and f show the […]

T5 sequence (P29597 whole entry): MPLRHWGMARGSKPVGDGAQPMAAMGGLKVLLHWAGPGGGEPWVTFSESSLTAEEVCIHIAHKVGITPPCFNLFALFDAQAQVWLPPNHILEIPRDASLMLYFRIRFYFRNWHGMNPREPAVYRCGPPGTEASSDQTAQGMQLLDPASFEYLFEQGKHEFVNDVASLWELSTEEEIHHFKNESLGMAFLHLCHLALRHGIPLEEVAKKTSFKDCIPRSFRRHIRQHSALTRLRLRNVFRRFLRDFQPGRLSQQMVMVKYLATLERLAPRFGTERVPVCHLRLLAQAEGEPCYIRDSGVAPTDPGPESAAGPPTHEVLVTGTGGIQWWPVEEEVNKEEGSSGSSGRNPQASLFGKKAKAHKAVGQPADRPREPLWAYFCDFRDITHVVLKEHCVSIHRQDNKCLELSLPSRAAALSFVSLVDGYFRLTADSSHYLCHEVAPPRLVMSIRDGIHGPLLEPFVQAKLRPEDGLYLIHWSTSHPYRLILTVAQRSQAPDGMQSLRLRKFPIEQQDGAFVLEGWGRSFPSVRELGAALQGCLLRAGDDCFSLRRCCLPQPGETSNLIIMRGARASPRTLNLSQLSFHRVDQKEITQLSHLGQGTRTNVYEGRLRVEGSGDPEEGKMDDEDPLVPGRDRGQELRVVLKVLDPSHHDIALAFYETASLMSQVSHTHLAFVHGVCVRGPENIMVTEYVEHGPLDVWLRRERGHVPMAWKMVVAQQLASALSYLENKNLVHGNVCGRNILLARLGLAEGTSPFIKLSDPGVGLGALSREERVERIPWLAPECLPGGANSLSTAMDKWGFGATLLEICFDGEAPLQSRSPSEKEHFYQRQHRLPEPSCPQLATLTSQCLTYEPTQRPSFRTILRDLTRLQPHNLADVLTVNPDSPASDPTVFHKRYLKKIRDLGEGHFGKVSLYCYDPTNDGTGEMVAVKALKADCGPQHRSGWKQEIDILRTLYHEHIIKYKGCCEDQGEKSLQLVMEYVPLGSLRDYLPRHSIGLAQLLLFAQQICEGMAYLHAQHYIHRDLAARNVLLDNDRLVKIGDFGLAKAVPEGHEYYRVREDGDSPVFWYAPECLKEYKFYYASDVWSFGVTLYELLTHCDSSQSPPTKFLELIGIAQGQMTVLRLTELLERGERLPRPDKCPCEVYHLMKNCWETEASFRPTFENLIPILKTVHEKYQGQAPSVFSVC
T4 sequence (P51812 whole entry): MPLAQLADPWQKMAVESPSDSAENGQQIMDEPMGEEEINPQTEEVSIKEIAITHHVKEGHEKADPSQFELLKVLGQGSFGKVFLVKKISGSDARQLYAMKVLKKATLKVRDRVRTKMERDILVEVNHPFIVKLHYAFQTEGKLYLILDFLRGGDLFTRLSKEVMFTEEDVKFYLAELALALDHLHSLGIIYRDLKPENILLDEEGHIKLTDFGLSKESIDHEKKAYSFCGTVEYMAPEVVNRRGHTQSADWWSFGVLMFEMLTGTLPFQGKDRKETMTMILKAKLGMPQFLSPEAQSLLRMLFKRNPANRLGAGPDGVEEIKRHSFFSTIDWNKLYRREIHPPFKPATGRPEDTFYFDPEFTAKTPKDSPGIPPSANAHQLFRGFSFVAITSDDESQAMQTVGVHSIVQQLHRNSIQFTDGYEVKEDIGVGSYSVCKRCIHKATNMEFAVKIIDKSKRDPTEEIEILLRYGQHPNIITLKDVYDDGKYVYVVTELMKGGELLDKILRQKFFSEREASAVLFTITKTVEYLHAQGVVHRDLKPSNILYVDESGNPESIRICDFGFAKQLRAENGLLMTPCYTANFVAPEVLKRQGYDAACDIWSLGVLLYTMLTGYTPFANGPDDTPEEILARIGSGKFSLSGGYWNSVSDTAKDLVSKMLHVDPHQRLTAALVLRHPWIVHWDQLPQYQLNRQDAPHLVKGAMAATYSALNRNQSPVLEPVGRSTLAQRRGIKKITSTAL
T2 sequence (P15056 whole entry): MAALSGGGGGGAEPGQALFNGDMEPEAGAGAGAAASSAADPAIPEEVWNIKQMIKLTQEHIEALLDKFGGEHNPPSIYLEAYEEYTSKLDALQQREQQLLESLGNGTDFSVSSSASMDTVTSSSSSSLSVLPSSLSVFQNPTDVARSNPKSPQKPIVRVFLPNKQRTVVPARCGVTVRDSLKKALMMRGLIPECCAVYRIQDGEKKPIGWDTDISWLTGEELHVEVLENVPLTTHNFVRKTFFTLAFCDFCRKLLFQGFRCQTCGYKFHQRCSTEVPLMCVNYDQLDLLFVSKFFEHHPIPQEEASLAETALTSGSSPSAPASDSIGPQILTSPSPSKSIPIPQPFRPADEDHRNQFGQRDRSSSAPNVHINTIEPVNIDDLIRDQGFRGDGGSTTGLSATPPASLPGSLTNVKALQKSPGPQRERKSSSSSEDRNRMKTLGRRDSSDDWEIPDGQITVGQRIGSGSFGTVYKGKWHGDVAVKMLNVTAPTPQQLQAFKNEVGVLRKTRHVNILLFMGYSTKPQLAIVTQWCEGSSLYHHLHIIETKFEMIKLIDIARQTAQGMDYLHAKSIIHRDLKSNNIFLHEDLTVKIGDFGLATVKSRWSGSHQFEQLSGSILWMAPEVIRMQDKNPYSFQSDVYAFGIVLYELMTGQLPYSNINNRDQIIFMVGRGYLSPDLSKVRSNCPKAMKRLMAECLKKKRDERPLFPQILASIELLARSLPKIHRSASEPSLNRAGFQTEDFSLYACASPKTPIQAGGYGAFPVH
T3 sequence (P16234 24-1089): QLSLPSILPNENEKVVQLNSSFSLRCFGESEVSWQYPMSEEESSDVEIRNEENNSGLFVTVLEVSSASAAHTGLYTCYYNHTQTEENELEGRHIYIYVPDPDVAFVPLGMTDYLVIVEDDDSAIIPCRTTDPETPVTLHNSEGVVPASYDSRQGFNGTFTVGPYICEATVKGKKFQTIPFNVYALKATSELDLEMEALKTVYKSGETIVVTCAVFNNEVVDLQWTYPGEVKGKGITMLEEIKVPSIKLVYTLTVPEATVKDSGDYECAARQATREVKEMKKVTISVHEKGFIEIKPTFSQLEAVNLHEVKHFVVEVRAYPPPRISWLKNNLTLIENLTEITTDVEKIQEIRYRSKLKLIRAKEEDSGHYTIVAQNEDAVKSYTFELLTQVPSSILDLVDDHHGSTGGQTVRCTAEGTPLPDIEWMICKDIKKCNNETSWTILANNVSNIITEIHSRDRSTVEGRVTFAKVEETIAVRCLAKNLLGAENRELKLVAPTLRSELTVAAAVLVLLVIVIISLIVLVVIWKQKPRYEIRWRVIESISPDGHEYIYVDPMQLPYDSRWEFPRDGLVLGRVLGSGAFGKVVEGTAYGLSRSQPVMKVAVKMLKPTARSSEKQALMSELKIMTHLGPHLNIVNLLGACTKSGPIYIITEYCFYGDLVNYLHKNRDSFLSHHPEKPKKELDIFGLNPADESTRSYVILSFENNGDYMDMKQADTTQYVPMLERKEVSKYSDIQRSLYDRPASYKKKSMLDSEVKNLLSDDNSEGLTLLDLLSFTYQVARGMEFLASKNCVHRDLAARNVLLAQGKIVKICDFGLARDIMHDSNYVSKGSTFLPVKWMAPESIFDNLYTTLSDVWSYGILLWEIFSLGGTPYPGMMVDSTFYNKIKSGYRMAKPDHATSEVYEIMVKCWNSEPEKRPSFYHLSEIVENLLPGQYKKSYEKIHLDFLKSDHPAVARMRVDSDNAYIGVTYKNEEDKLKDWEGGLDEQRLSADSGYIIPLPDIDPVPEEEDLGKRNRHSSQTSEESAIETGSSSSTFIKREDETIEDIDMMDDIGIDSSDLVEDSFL

fluorescence emission [1]: did not emit fluorescence | maximum absorbance [1]: 390 nm | number of kinase enzymes bound, of a total of 96 (96 kinase enzymes): at least 50 | KINOMEscan percentile value (ABL1 (T315I)): low percentile value | KINOMEscan percentile value (BRAF): low percentile value | KINOMEscan percentile value (PDGFRa): low percentile value | KINOMEscan percentile value (RSK2): low percentile value | KINOMEscan percentile value (TYK2): low percentile value
SMILES: CN(C)c1ccc2cc(C=O)c(O)cc2c1 [compound 1, 6-(dimethylamino)-3-hydroxyl-2-naphthaldehyde]
two-photon fluorescence in cancer tissues versus normal tissues ([2]; nude mice, ear injection of 10 μL of compound 1 (10 mM), imaged after 30 minutes, ex 880 nm): strong fluorescence was selectively observed in the cancer tissues | 3D imaging (two-photon microscopy combined with OCT) fluorescence ([2]; same conditions as Example 14, cancer tissues): fluorescence was strongly emitted from the wide tissues
